PMC6553790 (PLoS Pathogens, 2019)

System: P. falciparum Cam3.II lines
Assay: Isobologram analyses (fixed-ratio drug combinations)
Format: cell-based, Plasmodium falciparum
Conditions: asynchronous parasites, 72 hr
Procedure: Assays were performed with fixed ratios of drug combinations (1:0, 4:1, 2:1, 1:1, 1:2, 1:4, and 0:1), tested in duplicate. Combinations were prepared from 16×IC50 drug stocks and tested across a range of two-fold dilutions. Assays were conducted with asynchronous cultures exposed for 72 hr or with tightly synchronized rings or trophozoites (tested at 0–3 hr or 24–27 hr post-invasion, respectively) exposed for 3 hr. Post-pulse drug washouts were conducted as described above for in vitro determination of IC50 levels. IC50 values were derived for each compound tested alone, and fractional IC50 (FIC50) values were determined for each compound tested in combination (FIC50 = […]) and plotted for each drug combination. For each combination, the mean of the sums of FIC50 values at each combination (mean ΣFIC50) was also calculated and the results illustrated using heat maps.

| Compound | Interaction with WLL or WLW |
| --- | --- |
| C[C@@H]1C[C@@H]([C@H](O)CC2CC(=O)NC(=O)C2)C(=O)[C@@H](C)C1 [CHX, cycloheximide] | antagonism |
| O=C(NCCN1CCCC1)c1cc(-c2ccc(CN3CCOCC3)cc2)nc2ccc(F)cc12 [DDD107498] | antagonism |
| Cc1cc(Nc2ccc(S(F)(F)(F)(F)F)cc2)n2nc(C(C)(F)F)nc2n1 [DSM265] | antagonism |
| O=C(CC1NCCCC1O)Cn1cnc2cc(Br)c(Cl)cc2c1=O (centres unmarked) [HFG, halofuginone] | antagonism |
| C[C@H]1Cc2c([nH]c3cc(Cl)c(F)cc23)[C@@]2(N1)C(=O)Nc1ccc(Cl)cc12 [NITD609] | antagonism |

Same assay, conditions: asynchronous parasites, early rings and trophozoites; Cam3.II K13WT and K13C580Y

| Compound | Interaction with WLW (isobologram) |
| --- | --- |
| CN(C)c1ccc2nc3ccc(=[N+](C)C)cc-3sc2c1 [MB, methylene blue] | synergy |
| c1cc([C@H]2CC[C@]3(CC2)OO[C@]2(O3)C3CC4CC(C3)CC2C4)ccc1OCCN1CCOCC1 [OZ439] | synergy |
| C=CC(=O)N1C/C(=C\c2ccc([N+](=O)[O-])cc2)C(=O)/C(=C/c2ccc([N+](=O)[O-])cc2)C1 [b-AP15] | synergy |

Same assay, conditions: asynchronous parasites, rings and trophozoites (S1 Fig)

| Compound | Interaction with WLL (isobologram) |
| --- | --- |
| CN(C)c1ccc2nc3ccc(=[N+](C)C)cc-3sc2c1 [MB, methylene blue] | synergy with WLL was limited to the early ring stage |

Same assay, conditions: combined with WLL; Asynchronous, 72 hr; Cam3.II K13C580Y

| Compound | Mean of the sums of FIC50 (mean ΣFIC50) |
| --- | --- |
| C[C@@H]1C[C@@H]([C@H](O)CC2CC(=O)NC(=O)C2)C(=O)[C@@H](C)C1 [CHX, cycloheximide] | 1.40 |
| O=C(NCCN1CCCC1)c1cc(-c2ccc(CN3CCOCC3)cc2)nc2ccc(F)cc12 [DDD107498] | 1.60 |
| Cc1cc(Nc2ccc(S(F)(F)(F)(F)F)cc2)n2nc(C(C)(F)F)nc2n1 [DSM265] | 1.46 |
| O=C(CC1NCCCC1O)Cn1cnc2cc(Br)c(Cl)cc2c1=O (centres unmarked) [HFG, halofuginone] | 1.46 |
| CN(C)c1ccc2nc3ccc(=[N+](C)C)cc-3sc2c1 [MB, methylene blue] | 1.20 |
| C[C@H]1Cc2c([nH]c3cc(Cl)c(F)cc23)[C@@]2(N1)C(=O)Nc1ccc(Cl)cc12 [NITD609] | 1.67 |
| c1cc([C@H]2CC[C@]3(CC2)OO[C@]2(O3)C3CC4CC(C3)CC2C4)ccc1OCCN1CCOCC1 [OZ439] | 1.10 |
| C=CC(=O)N1C/C(=C\c2ccc([N+](=O)[O-])cc2)C(=O)/C(=C/c2ccc([N+](=O)[O-])cc2)C1 [b-AP15] | 1.11 |

Same assay, conditions: combined with WLL; Asynchronous, 72 hr; Cam3.II K13WT

| Compound | Mean of the sums of FIC50 (mean ΣFIC50) |
| --- | --- |
| C[C@@H]1C[C@@H]([C@H](O)CC2CC(=O)NC(=O)C2)C(=O)[C@@H](C)C1 [CHX, cycloheximide] | 1.44 |
| O=C(NCCN1CCCC1)c1cc(-c2ccc(CN3CCOCC3)cc2)nc2ccc(F)cc12 [DDD107498] | 1.65 |
| Cc1cc(Nc2ccc(S(F)(F)(F)(F)F)cc2)n2nc(C(C)(F)F)nc2n1 [DSM265] | 1.34 |
| O=C(CC1NCCCC1O)Cn1cnc2cc(Br)c(Cl)cc2c1=O (centres unmarked) [HFG, halofuginone] | 1.47 |
| CN(C)c1ccc2nc3ccc(=[N+](C)C)cc-3sc2c1 [MB, methylene blue] | 1.22 |
| C[C@H]1Cc2c([nH]c3cc(Cl)c(F)cc23)[C@@]2(N1)C(=O)Nc1ccc(Cl)cc12 [NITD609] | 1.58 |
| c1cc([C@H]2CC[C@]3(CC2)OO[C@]2(O3)C3CC4CC(C3)CC2C4)ccc1OCCN1CCOCC1 [OZ439] | 1.21 |
| C=CC(=O)N1C/C(=C\c2ccc([N+](=O)[O-])cc2)C(=O)/C(=C/c2ccc([N+](=O)[O-])cc2)C1 [b-AP15] | 1.05 |

Same assay, conditions: combined with WLL; Rings, 3 hr exposure; Cam3.II K13C580Y

| Compound | Mean of the sums of FIC50 (mean ΣFIC50) |
| --- | --- |
| CN(C)c1ccc2nc3ccc(=[N+](C)C)cc-3sc2c1 [MB, methylene blue] | 0.84 |
| c1cc([C@H]2CC[C@]3(CC2)OO[C@]2(O3)C3CC4CC(C3)CC2C4)ccc1OCCN1CCOCC1 [OZ439] | 0.79 |
| C=CC(=O)N1C/C(=C\c2ccc([N+](=O)[O-])cc2)C(=O)/C(=C/c2ccc([N+](=O)[O-])cc2)C1 [b-AP15] | 0.77 |

Same assay, conditions: combined with WLL; Rings, 3 hr exposure; Cam3.II K13WT

| Compound | Mean of the sums of FIC50 (mean ΣFIC50) |
| --- | --- |
| CN(C)c1ccc2nc3ccc(=[N+](C)C)cc-3sc2c1 [MB, methylene blue] | 0.87 |
| c1cc([C@H]2CC[C@]3(CC2)OO[C@]2(O3)C3CC4CC(C3)CC2C4)ccc1OCCN1CCOCC1 [OZ439] | 0.65 |
| C=CC(=O)N1C/C(=C\c2ccc([N+](=O)[O-])cc2)C(=O)/C(=C/c2ccc([N+](=O)[O-])cc2)C1 [b-AP15] | 0.80 |

Same assay, conditions: combined with WLL; Trophozoites, 3 hr exposure; Cam3.II K13C580Y

| Compound | Mean of the sums of FIC50 (mean ΣFIC50) |
| --- | --- |
| c1cc([C@H]2CC[C@]3(CC2)OO[C@]2(O3)C3CC4CC(C3)CC2C4)ccc1OCCN1CCOCC1 [OZ439] | 0.67 |
| C=CC(=O)N1C/C(=C\c2ccc([N+](=O)[O-])cc2)C(=O)/C(=C/c2ccc([N+](=O)[O-])cc2)C1 [b-AP15] | 0.66 |

Same assay, conditions: combined with WLL; Trophozoites, 3 hr exposure; Cam3.II K13WT

| Compound | Mean of the sums of FIC50 (mean ΣFIC50) |
| --- | --- |
| c1cc([C@H]2CC[C@]3(CC2)OO[C@]2(O3)C3CC4CC(C3)CC2C4)ccc1OCCN1CCOCC1 [OZ439] | 0.64 |
| C=CC(=O)N1C/C(=C\c2ccc([N+](=O)[O-])cc2)C(=O)/C(=C/c2ccc([N+](=O)[O-])cc2)C1 [b-AP15] | 0.67 |

Same assay, conditions: combined with WLW; Asynchronous, 72 hr; Cam3.II K13C580Y

| Compound | Mean of the sums of FIC50 (mean ΣFIC50) |
| --- | --- |
| C[C@@H]1C[C@@H]([C@H](O)CC2CC(=O)NC(=O)C2)C(=O)[C@@H](C)C1 [CHX, cycloheximide] | 1.37 |
| O=C(NCCN1CCCC1)c1cc(-c2ccc(CN3CCOCC3)cc2)nc2ccc(F)cc12 [DDD107498] | 1.44 |
| Cc1cc(Nc2ccc(S(F)(F)(F)(F)F)cc2)n2nc(C(C)(F)F)nc2n1 [DSM265] | 1.30 |
| O=C(CC1NCCCC1O)Cn1cnc2cc(Br)c(Cl)cc2c1=O (centres unmarked) [HFG, halofuginone] | 1.53 |
| CN(C)c1ccc2nc3ccc(=[N+](C)C)cc-3sc2c1 [MB, methylene blue] | 0.83 |
| C[C@H]1Cc2c([nH]c3cc(Cl)c(F)cc23)[C@@]2(N1)C(=O)Nc1ccc(Cl)cc12 [NITD609] | 1.44 |
| c1cc([C@H]2CC[C@]3(CC2)OO[C@]2(O3)C3CC4CC(C3)CC2C4)ccc1OCCN1CCOCC1 [OZ439] | 0.76 |
| C=CC(=O)N1C/C(=C\c2ccc([N+](=O)[O-])cc2)C(=O)/C(=C/c2ccc([N+](=O)[O-])cc2)C1 [b-AP15] | 0.78 |

Same assay, conditions: combined with WLW; Asynchronous, 72 hr; Cam3.II K13WT

| Compound | Mean of the sums of FIC50 (mean ΣFIC50) |
| --- | --- |
| C[C@@H]1C[C@@H]([C@H](O)CC2CC(=O)NC(=O)C2)C(=O)[C@@H](C)C1 [CHX, cycloheximide] | 1.29 |
| O=C(NCCN1CCCC1)c1cc(-c2ccc(CN3CCOCC3)cc2)nc2ccc(F)cc12 [DDD107498] | 1.28 |
| Cc1cc(Nc2ccc(S(F)(F)(F)(F)F)cc2)n2nc(C(C)(F)F)nc2n1 [DSM265] | 1.24 |
| O=C(CC1NCCCC1O)Cn1cnc2cc(Br)c(Cl)cc2c1=O (centres unmarked) [HFG, halofuginone] | 1.42 |
| CN(C)c1ccc2nc3ccc(=[N+](C)C)cc-3sc2c1 [MB, methylene blue] | 0.89 |
| C[C@H]1Cc2c([nH]c3cc(Cl)c(F)cc23)[C@@]2(N1)C(=O)Nc1ccc(Cl)cc12 [NITD609] | 1.39 |
| c1cc([C@H]2CC[C@]3(CC2)OO[C@]2(O3)C3CC4CC(C3)CC2C4)ccc1OCCN1CCOCC1 [OZ439] | 0.85 |
| C=CC(=O)N1C/C(=C\c2ccc([N+](=O)[O-])cc2)C(=O)/C(=C/c2ccc([N+](=O)[O-])cc2)C1 [b-AP15] | 0.86 |

Same assay, conditions: combined with WLW; Rings, 3 hr exposure; Cam3.II K13C580Y

| Compound | Mean of the sums of FIC50 (mean ΣFIC50) |
| --- | --- |
| CN(C)c1ccc2nc3ccc(=[N+](C)C)cc-3sc2c1 [MB, methylene blue] | 0.36 |
| c1cc([C@H]2CC[C@]3(CC2)OO[C@]2(O3)C3CC4CC(C3)CC2C4)ccc1OCCN1CCOCC1 [OZ439] | 0.40 |
| C=CC(=O)N1C/C(=C\c2ccc([N+](=O)[O-])cc2)C(=O)/C(=C/c2ccc([N+](=O)[O-])cc2)C1 [b-AP15] | 0.35 |

Same assay, conditions: combined with WLW; Rings, 3 hr exposure; Cam3.II K13WT

| Compound | Mean of the sums of FIC50 (mean ΣFIC50) |
| --- | --- |
| CN(C)c1ccc2nc3ccc(=[N+](C)C)cc-3sc2c1 [MB, methylene blue] | 0.40 |
| c1cc([C@H]2CC[C@]3(CC2)OO[C@]2(O3)C3CC4CC(C3)CC2C4)ccc1OCCN1CCOCC1 [OZ439] | 0.35 |
| C=CC(=O)N1C/C(=C\c2ccc([N+](=O)[O-])cc2)C(=O)/C(=C/c2ccc([N+](=O)[O-])cc2)C1 [b-AP15] | 0.34 |

Same assay, conditions: combined with WLW; Trophozoites, 3 hr exposure; Cam3.II K13C580Y

| Compound | Mean of the sums of FIC50 (mean ΣFIC50) |
| --- | --- |
| CN(C)c1ccc2nc3ccc(=[N+](C)C)cc-3sc2c1 [MB, methylene blue] | 0.78 |
| c1cc([C@H]2CC[C@]3(CC2)OO[C@]2(O3)C3CC4CC(C3)CC2C4)ccc1OCCN1CCOCC1 [OZ439] | 0.51 |
| C=CC(=O)N1C/C(=C\c2ccc([N+](=O)[O-])cc2)C(=O)/C(=C/c2ccc([N+](=O)[O-])cc2)C1 [b-AP15] | 0.52 |

Same assay, conditions: combined with WLW; Trophozoites, 3 hr exposure; Cam3.II K13WT

| Compound | Mean of the sums of FIC50 (mean ΣFIC50) |
| --- | --- |
| CN(C)c1ccc2nc3ccc(=[N+](C)C)cc-3sc2c1 [MB, methylene blue] | 0.71 |
| c1cc([C@H]2CC[C@]3(CC2)OO[C@]2(O3)C3CC4CC(C3)CC2C4)ccc1OCCN1CCOCC1 [OZ439] | 0.48 |
| C=CC(=O)N1C/C(=C\c2ccc([N+](=O)[O-])cc2)C(=O)/C(=C/c2ccc([N+](=O)[O-])cc2)C1 [b-AP15] | 0.60 |

Same assay, conditions: early rings and trophozoites

| Compound | Interaction with WLL (isobologram) |
| --- | --- |
| c1cc([C@H]2CC[C@]3(CC2)OO[C@]2(O3)C3CC4CC(C3)CC2C4)ccc1OCCN1CCOCC1 [OZ439] | Synergy |
| C=CC(=O)N1C/C(=C\c2ccc([N+](=O)[O-])cc2)C(=O)/C(=C/c2ccc([N+](=O)[O-])cc2)C1 [b-AP15] | Synergy |
